Among the data in PubChem BioAssay (NCI) are GI50 and TGI values, retold here.

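All cell lines were grown in 96-well plates and treated with compound for 48 hours. The concentration for 50% growth inhibition is given as GI50. The concentration for full growth arrest is given as TGI.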

Common to all, as to assay: NCI anticancer screen, dose series, 48 h
Experiment [1] concerns ACHN renal.
The test system of experiment [2] is HCT-15 colon.
Experiment [3] concerns K-562 leukemia.
For experiment [4], the system named is KM12 colon.
Experiment [5] relates to NCI-H23 lung.
Experiment [6] deals with OVCAR-8 ovarian.
Experiment [7] relates to SK-MEL-5 melanoma.
The test system of experiment [8] is SK-OV-3 ovarian.
Experiment [9] has as its system SR leukemia.
Experiment [10] concerns UO-31 renal.

Take `Cc1cc(Cl)ccc1Nc1nc(C(F)(F)F)ccc1C(=O)N1CCN(c2cccc(Cl)c2)CC1`: the GI50 in [1] was above 100 µM; in experiment [2] it was above 100 µM; in [3] it was 19.7 µM; in experiment [4] it was above 100 µM; in [5], above 100 µM; in experiment [6] it was above 100 µM. Also, the GI50 in experiment [7] is 65.6 µM; in [8] it was above 100 µM; in experiment [9] it was above 100 µM; in experiment [10], 67.3 µM. Also, the TGI in experiment [1], in experiment [2], in experiment [3], in experiment [4], in experiment [5] and in experiment [6] was above 100 µM in each case. Besides, the TGI in experiment [7], in experiment [8], in [9] and in [10] was above 100 µM throughout.
Regarding `Oc1ccc(Cl)cc1Cc1cc(Cl)ccc1O`, the GI50 is 3.33 µM in experiment [1]; 3.26 µM in [2]; 3.3 µM in experiment [3]; 3.06 µM in [4]; 2.04 µM in experiment [5]; 2.63 µM in experiment [6]. Moreover, the GI50 in experiment [7] was 1.62 µM; in experiment [8] it was 2.81 µM; in experiment [9] it was 4.45 µM; in experiment [10], 2.06 µM. Also, the TGI in experiment [1] was determined as 11.3 µM; in experiment [2], 12.3 µM; in experiment [3] it was 13.7 µM; in [4], 11.1 µM; in experiment [5] it was 5.79 µM; in experiment [6], 8.97 µM. For the same molecule, the TGI in [7] stood at 3.46 µM; in experiment [8], 10.9 µM; in experiment [9], 35.8 µM; in experiment [10], 6.48 µM.
As for `CCSC(SCC)=C1C(=O)N(c2ccccc2)N=C1C`, the TGI was found to be 29.4 µM in experiment [1]; 24.7 µM in experiment [2]; 23.3 µM in [3]; 35.3 µM in experiment [4]; 34.9 µM in [5]; 24.4 µM in experiment [6]. The TGI in experiment [7] is 33.1 µM; in experiment [8] it was 33.4 µM; in experiment [9], 38.4 µM; in experiment [10], 29 µM.
As to `COc1cnc2cc(C(=O)O)c3ccccc3c2c1`, the TGI in experiment [1], in [2], in experiment [3], in [4], in [5] and in experiment [6] was above 100 µM each time. Also, the TGI in [7], in experiment [8], in experiment [9] and in experiment [10] was above 100 µM in each case.
